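Dose response: 5 concentrations. Exposure: 48 h. Format: 96-well plates. Endpoint: linear interpolation; highest concentration if not reached. At the GI50, growth is halved.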 Activity calls are given as the source filed them. Rule as the data show it: active = GI50 up to about 1.1 µM and inactive = higher.
Legend:
Experiment in all cases: inhibition of tumour cell growth, NCI panel, 48 h
A498 = system: A498
HCC 2998 = system: HCC 2998
HT-29 = system: HT-29
K562 = system: K562
LOX IMVI = system: LOX IMVI
MDA-MB-435 = system: MDA-MB-435
NCI-H460 = system: NCI-H460
OVCAR-3 = system: OVCAR-3
OVCAR-4 = system: OVCAR-4
SF-268 = system: SF-268
SF-295 = system: SF-295
SK-MEL-28 = system: SK-MEL-28
SK-MEL-2 = system: SK-MEL-2
SN12C = system: SN12C
T47D = system: T47D
TK-10 = system: TK-10
U-251 = system: U-251
UACC-62 = system: UACC-62
UO-31 = system: UO-31
NCI-H522 = system: NCI-H522

Measured: GI50

CN(C)c1ccc(C=C2N=C(c3ccccc3)N(c3cc(C(=O)c4ccccc4)ccc3N3C(=O)/C(=C/c4ccc(N(C)C)cc4)N=C3c3ccccc3)C2=O)cc1
inactive: A498 3.48 µM | HCC 2998 3.76 µM | HT-29 4.28 µM | K562 3.95 µM | LOX IMVI 5.98 µM | MDA-MB-435 1.9 µM | NCI-H460 3.94 µM | OVCAR-3 2.12 µM | OVCAR-4 7.21 µM | SF-268 14.4 µM | SF-295 3.76 µM | SK-MEL-28 > 100 µM | SK-MEL-2 3.29 µM | SN12C 58.7 µM | T47D 5.65 µM | TK-10 23.8 µM | U-251 3.67 µM | UACC-62 4.24 µM | UO-31 15.8 µM

CCCCCCCCC/C=C1/CC(CO)(COC(=O)c2ccccc2)OC1=O (centres undefined)
inactive: A498 13.2 µM | HCC 2998 14.6 µM | HT-29 17.7 µM | K562 3.89 µM | MDA-MB-435 11.1 µM | NCI-H460 10 µM | NCI-H522 13.7 µM | OVCAR-3 16.7 µM | OVCAR-4 12.7 µM | SF-268 15.7 µM | SF-295 10 µM | SK-MEL-28 13.7 µM | SK-MEL-2 16.3 µM | SN12C 12.5 µM | T47D 11.5 µM | TK-10 10.8 µM | U-251 14 µM | UACC-62 14.7 µM | UO-31 13 µM

Cc1n[n+](Cc2ccccc2)c2sc(N)nn12
inactive: A498 > 100 µM | HT-29 59 µM | K562 76.7 µM | LOX IMVI > 100 µM | MDA-MB-435 > 100 µM | NCI-H460 > 10 µM | NCI-H522 30 µM | OVCAR-3 > 100 µM | OVCAR-4 > 100 µM | SF-268 35.3 µM | SF-295 > 100 µM | SK-MEL-28 > 100 µM | SK-MEL-2 > 100 µM | SN12C > 100 µM | T47D > 100 µM | TK-10 > 100 µM | U-251 > 100 µM | UACC-62 10.2 µM | UO-31 > 100 µM

O=C(Cn1c2ccc(Br)cc2c2nc3ccccc3nc21)N1CCOCC1
inactive: A498 > 100 µM | HCC 2998 > 100 µM | HT-29 > 100 µM | K562 > 100 µM | LOX IMVI 39.8 µM | MDA-MB-435 > 100 µM | NCI-H460 > 100 µM | OVCAR-3 > 100 µM | OVCAR-4 > 100 µM | SF-268 > 100 µM | SF-295 > 100 µM | SK-MEL-28 > 100 µM | SK-MEL-2 > 100 µM | SN12C > 100 µM | T47D 25.5 µM | TK-10 > 100 µM | U-251 > 100 µM | UACC-62 > 100 µM | UO-31 > 100 µM

COC(=O)c1ccccc1C#CCCCOS(C)(=O)=O
inactive: A498 > 10 µM | HCC 2998 > 10 µM | HT-29 > 10 µM | K562 > 10 µM | LOX IMVI > 10 µM | MDA-MB-435 > 10 µM | NCI-H460 > 10 µM | OVCAR-3 > 10 µM | OVCAR-4 > 10 µM | SF-268 > 10 µM | SF-295 > 10 µM | SK-MEL-28 > 10 µM | SK-MEL-2 > 10 µM | SN12C > 10 µM | T47D > 10 µM | TK-10 > 10 µM | U-251 > 10 µM | UACC-62 > 10 µM | UO-31 > 10 µM

O=P(O)(O)CCP(=O)(O)O
inactive: A498 > 100 µM | HT-29 > 100 µM | K562 > 100 µM | LOX IMVI > 100 µM | MDA-MB-435 > 100 µM | NCI-H460 > 100 µM | NCI-H522 > 100 µM | OVCAR-3 > 100 µM | OVCAR-4 > 100 µM | SF-268 > 100 µM | SF-295 > 100 µM | SK-MEL-28 > 100 µM | SK-MEL-2 > 100 µM | SN12C > 100 µM | T47D > 100 µM | TK-10 > 100 µM | U-251 > 100 µM | UACC-62 > 100 µM | UO-31 > 100 µM

Cc1ccc(S(N)(=O)=O)cc1 [P-TOLUENESULFONAMIDE]
inactive: A498 > 1000 µM | HCC 2998 > 1000 µM | HT-29 > 1000 µM | K562 > 1000 µM | LOX IMVI > 1000 µM | MDA-MB-435 > 1000 µM | NCI-H460 > 1000 µM | NCI-H522 > 1000 µM | OVCAR-3 > 1000 µM | SF-268 > 1000 µM | SF-295 > 1000 µM | SK-MEL-2 > 1000 µM | SN12C > 1000 µM | T47D > 1000 µM | TK-10 > 1000 µM | U-251 > 1000 µM | UACC-62 > 1000 µM | UO-31 > 1000 µM

N=C(/C=C/c1ccc(-c2cn3cc(/C=C/C(=N)N4CCOCC4)ccc3n2)cc1)N1CCOCC1
inactive: A498 > 100 µM | HCC 2998 > 100 µM | K562 > 100 µM | MDA-MB-435 > 100 µM | NCI-H460 > 100 µM | NCI-H522 62.8 µM | OVCAR-3 > 100 µM | OVCAR-4 > 100 µM | SF-268 > 100 µM | SF-295 > 100 µM | SK-MEL-28 > 100 µM | SK-MEL-2 > 100 µM | SN12C > 100 µM | T47D > 100 µM | TK-10 > 100 µM | U-251 > 100 µM | UACC-62 > 100 µM | UO-31 > 100 µM

O=C1CC(=O)n2cnc3cccc(c32)N1
inactive: A498 > 100 µM | HT-29 > 100 µM | K562 > 100 µM | MDA-MB-435 > 100 µM | NCI-H460 > 100 µM | OVCAR-3 > 100 µM | OVCAR-4 > 100 µM | SF-268 > 100 µM | SF-295 > 100 µM | SK-MEL-28 > 100 µM | SK-MEL-2 > 100 µM | SN12C > 100 µM | T47D > 100 µM | U-251 > 100 µM | UACC-62 > 100 µM | UO-31 > 100 µM

O=C1NC2c3c(I)sc(I)c3C(O)C2O1 (centres undefined)
inactive: A498 > 100 µM | HCC 2998 > 100 µM | HT-29 > 100 µM | K562 > 100 µM | LOX IMVI > 100 µM | MDA-MB-435 > 100 µM | NCI-H460 > 100 µM | OVCAR-3 > 100 µM | OVCAR-4 > 100 µM | SF-268 > 100 µM | SF-295 > 100 µM | SK-MEL-28 > 100 µM | SK-MEL-2 > 100 µM | SN12C > 100 µM | T47D > 100 µM | TK-10 > 100 µM | U-251 > 100 µM | UACC-62 > 100 µM | UO-31 > 100 µM

CC1(O)/C(=N/O)CC2CC1C2(C)C (centres undefined)
inactive: HCC 2998 > 100 µM | HT-29 > 100 µM | K562 > 100 µM | LOX IMVI > 100 µM | MDA-MB-435 > 100 µM | NCI-H460 > 100 µM | NCI-H522 > 100 µM | OVCAR-3 > 100 µM | OVCAR-4 > 100 µM | SF-268 > 100 µM | SF-295 > 100 µM | SK-MEL-28 > 100 µM | SK-MEL-2 > 100 µM | SN12C > 100 µM | T47D > 100 µM | TK-10 > 100 µM | U-251 > 100 µM | UACC-62 > 100 µM | UO-31 > 100 µM

Reference: ChEMBL document CHEMBL1201862, “PubChem BioAssay data set” (2004)
